According to paper PMC8808171, “Nonselective TRPC channel inhibition and suppression of aminoglycoside-induced premature termination codon readthrough by the small molecule AC1903” (The Journal of Biological Chemistry, 2022):

Columns and labels:
[1] = test system: DMS-114 cells (TP53 R213X); experiment: G418-induced PTC readthrough (full-length p53, capillary electrophoresis Western) in DMS-114 cells; format: cell-based, human; conditions: for suppression of PTC readthrough induced by 400 μg/ml G418: 3 h preincubation with inhibitor, screen at two concentrations (Fig. 1C)
From the text: (§1) Variation in PTC readthrough response has been reported among individuals or cell lines with different nonsense mutations. Although this in part highlights the importance of the stop codon and its surrounding sequence as well as the physical location of the nonsense mutation in the mRNA sequence, understanding the contribution of other underlying genetic variations becomes more complicated. To rule out the effect of the sequence and position of nonsense mutations on response variation to potential PTC readthrough modulators, we studied two cancer cell lines, DMS-114 and TC-71, with identical homozygous nonsense mutation R213X in their TP53 gene. […] To find out whether the reduced response to G418 in TC-71 cells was associated with lower intracellular levels of G418, we measured concentrations of G418 in both cell lines at 0, 8 and 24 h post exposure to G418 (100 μg/ml).
Figure 1 Effect of TRPC inhibitors on G418 induced PTC readthrough. A, DMS-114 and TC-71 cell lines with homozygous TP53 nonsense mutation (R213X) were exposed to indicated concentrations of G418 for 24 h and p53 levels (full-length, FL-p53; truncated, TR-p53) were measured. B, 100 μg/ml G418 was added to DMS-114 and TC-71 cells and its total intracellular levels were measured at indicated time points (n = 5; data normalized to the highest response in each experiment; bars represent mean ± SD). C, DMS-114 cells were preincubated with indicated concentrations of TRPC inhibitors GFB-8438 (GFB), SAR7334 (SAR), SKF96365 (SKF), 2-APB, or AC1903 for 3 h followed by exposure to 400 μg/ml G418 for another 3 h. At 24 h cell lysates were prepared and p53 levels were measured. In panels A and C, protein levels were measured by automated capillary electrophoresis Western analysis (using vinculin and GAPDH as loading controls). Samples of cell lysates containing equal amounts of total protein were loaded in all capillaries and FL-p53 levels were expressed relative to the amount of FL-p53 in untreated cells. ∗ indicates statistically significant difference between samples according to two-way ANOVA (p < 0.05). PTC, premature termination codon; TRPC, transient receptor potential canonical.
To further investigate AC1903 as a suppressor of G418-induced PTC readthrough, we exposed DMS-114 and TC-71 cells to various concentrations of AC1903 for 3 h prior to exposure to 400 μg/ml G418 for another 3 h, followed by media replacement and incubation for another 18 h.
(§2) Figure 2 Effect of AC1903 on PTC readthrough and G418 trafficking.A and B, DMS-114 (A) or TC-71 (B) cells were pretreated with indicated concentrations of AC1903 for 3 h followed by exposure to 400 μg/ml G418. After 3 h medium was replenished and at 24 h cell lysates were prepared and p53 levels were measured. C and E, DMS-114 (C) or JEB01 (E) cells were either left untreated or pretreated with 150 μM AC1903 for 3 h followed by exposure to indicated concentrations of G418 for another 3 h. At 24 h cell lysates were prepared and p53 (C) or Collagen XVII (E) levels were measured. In panels A–C, protein levels were measured by automated capillary electrophoresis Western analysis (using vinculin as loading control). In panel E, protein levels were measured by Western blot (using beta-actin as loading control). Samples of cell lysates containing equal amounts of total protein were loaded in all capillaries and FL-p53 or Collagen XVII levels were expressed relative to their respective amounts in untreated cells. D, total intracellular levels of G418 were measured in the same lysates as in (C) (n = 5; data normalized to the highest response in each experiment; bars represent mean ± SD). F, total intracellular levels of G418 were measured in the same lysates as in (E) (n = 2; data normalized to the highest response in each experiment; bars represent mean ± SD). ∗ indicates statistically significant difference between samples according to one-way ANOVA (p < 0.05). PTC, premature termination codon. […]

TC-71 cells = experiment: Measurement of intracellular G418 (gentamicin ELISA) in TC-71 cells; format: cell-based, human; conditions: 100 μg/ml G418
From the text: as §1
(§3) Figure 1 Effect of TRPC inhibitors on G418 induced PTC readthrough. A, DMS-114 and TC-71 cell lines with homozygous TP53 nonsense mutation (R213X) were exposed to indicated concentrations of G418 for 24 h and p53 levels (full-length, FL-p53; truncated, TR-p53) were measured. B, 100 μg/ml G418 was added to DMS-114 and TC-71 cells and its total intracellular levels were measured at indicated time points (n = 5; data normalized to the highest response in each experiment; bars represent mean ± SD). […]

TC-71 cells (TP53 R213X) = experiment: G418-induced PTC readthrough (full-length p53, capillary electrophoresis Western) in TC-71 cells; format: cell-based; conditions: increasing concentrations of G418, 24 h
From the text: as §1, §3

[2] = test system: DMS-114 cells (TP53 R213X); experiment: G418-induced PTC readthrough (full-length p53, capillary electrophoresis Western) in DMS-114 cells; format: cell-based, human
hTRPV4 = test system: hTRPV4; set-up: method as in PMID 23136043, PMID 28523109; conditions: cited from earlier work
DMS-114 cells = experiment: Measurement of intracellular G418 (gentamicin ELISA) in DMS-114 cells; format: cell-based, human; conditions: Pico145 up to 3 μM, 400 μg/ml G418 (Fig. 3B)
Procedure: as §2, with “Samples of cell lysates containing equal amounts of total protein were loaded in all capillaries and FL-p53 or Collagen XVII levels were expressed relative to their respective amounts in untreated cells.” left out, “0.05).” for “0.05). PTC, premature termination codon.”

NCCOB(c1ccccc1)c1ccccc1 [2-APB]
suppression of PTC readthrough induced by 400 μg/ml G418 [1]: ~66%

CN[C@@H]1[C@@H](O)[C@@H](O[C@@H]2[C@@H](O)[C@H](O[C@H]3O[C@H]([C@@H](C)O)[C@@H](O)[C@H](O)[C@H]3N)[C@@H](N)C[C@H]2N)OC[C@]1(C)O [G418]
intracellular G418 level lower in TC-71 compared with DMS-114 (TC-71 cells; 8 h post exposure): ~11%
intracellular G418 level lower in TC-71 compared with DMS-114 (TC-71 cells; 24 h post exposure): ~9%
increase in PTC readthrough compared to untreated cells (TC-71 cells (TP53 R213X)): up to eightfold
increase in production of full-length p53 (readthrough product) compared with untreated cells ([1]; increasing concentrations of G418, 24 h): up to 144 fold

O=C1CN(c2cn[nH]c(=O)c2Cl)CCN1Cc1ccccc1C(F)(F)F [GFB-8438]
suppression of PTC readthrough induced by 400 μg/ml G418 [1]: no effect

O=C(NC1(c2ccccc2)CC1)c1c(CN2CCC(N3CCCCC3)CC2)c(-c2cccc(C(F)(F)F)c2)nc2cc(Br)ccc12 [GSK2193874]
effect on full-length p53 production ([2]; 0.03–3 μM GSK2193874 alone or in combination with 400 μg/ml G418 (Fig. S12)): did not have a major effect
IC50 (hTRPV4): 40 nM

Cn1c(=O)n(CCCO)c(=O)c2c1nc(Oc1cccc(OC(F)(F)F)c1)n2Cc1ccc(Cl)cc1 [Pico145]
effect on PTC readthrough ([2]; Pico145 up to 3 μM, 400 μg/ml G418 (Fig. 3A)): did not affect
effect on intracellular G418 levels (DMS-114 cells): did not affect

N#Cc1ccc(O[C@@H]2c3ccccc3C[C@H]2N2CCC[C@@H](N)C2)c(Cl)c1 [SAR7334]
suppression of PTC readthrough induced by 400 μg/ml G418 [1]: no effect

COc1ccc(CCCOC(Cn2ccnc2)c2ccc(OC)cc2)cc1 (stereo not drawn) [SKF96365]
suppression of PTC readthrough induced by 400 μg/ml G418 [1]: ~33%
